Laboratory results: US20260258004A1, “CRYSTALLINE FORMS OF (6S)-5-[4'-FLUORO-2-(TRIFLUOROMETHYL)BIPHENYL-4-YL]-6-METHYL-3,6- DIHYDRO-2H-l,3,4-OXADIAZIN-2-ONE” (Bayer Aktiengesellschaft, priority 2022, published 2026)

Key:
Assay type in all cases: physicochemical
[1] = Determination of bulk density during shear tests; conditions: during shear test
Procedure: Because of the normal stress of 1.5 kPa applied on the top of the lid during the shear test the lid lowers into the shear cell and compresses the powder.
During the shear tests this lowering of the lid is measured and recorded. Since the volume of the bottom ring is known and weight of the sample measured before the beginning of the shear test the bulk density of the sample during the shear test is calculated
[formula] • with: • ρb,shear: Bulk density under shear • mges: total mass of shear cell including powder sample (w/o lid) • mcell: net mass of shear cell (w/o powder sample, w/o lid) • hc: height of the bottom ring • hl: lowering of lid • Acell: bottom area of shear cell
The calculation of the bulk density is done automatically with the evaluation software provided together with the shear tester.

[2] = Hygroscopicity classification applying the Pharmacopeia rules
Text: The shear cell was fully filled with a sample of powder of the compound of formula (I) thereby preventing condensing the powder. Both samples, sample 1 and sample 2, were classified as non-hydroscopic applying the Pharmacopeia rules.

[3] = Thermodynamic stability of the polymorphic forms; conditions: between 0° C. and 80° C.
[4] = Particle size distribution by laser diffraction (Malvern Panalytical Mastersizer 3000, Fraunhofer)
Procedure: The particle size distribution was measured by laser diffraction using the Malvern Panalytical Mastersizer 3000.
The samples are again taken from example 1.6 (probe 1) and example 1.5 (probe 2), the same as used in example 4.
The sample to be analyzed is dispersed in 1 drop of Tween 80 the sample is processed according to ISO13320.
Laser diffraction is an often-used method for determination the particle size of dispersed solid materials. A widened laser beam illuminates a cuvette which contains part of the particles. By diffraction on the particles a characteristic pattern can be mapped on the detector. The resulting diffraction image is the additive overlaying of diffraction images of all particles.
Besides the mentioned detector two additional detectors are mounted in order to detect diffraction light in forward direction (FA1,9), in wide angle (LA1,2) and in back direction (BS1,2). The turbidity of the sample is measured by an extinction sensor. This is necessary to ensure a low particle concentration which is necessary to avoid wrong results by multiple diffraction of light at several particles.
The cuvette used was a wet unit where the suspension is pumped in a closed circuit with a dispersing unit that ensures a separation of single particles by shear forces.
The measurement range of the Malvern 3000 covers a particle size from 1 mm (2 mm) down to 20 nm
The calculation of the particle size distribution from the diffraction patterns was done on basis of theory of Fraunhofer.
This assumption is valid for particle sizes of 10 to 50 μm and above. For smaller particles the light scattering of the particle itself due to optical transparency must be considered which is done in the Mie-theory (not used for our probes). Precondition of the application of the Mie-theory is the knowledge of the refractive and absorption index of the dispersed solids.
Q3 is the cumulative volume distribution, e.g. D50=Q(50%) indicates 50% of the volume part of the sample is smaller than particle size of 50 μm.
The particle size is expressed as an equivalent diameter used in the method recommended by the Malvern Analysis Program and as described in ISO13320.

[5] = without ultrasound (US), listed as Probe 2

bulk density compared with sample 1 (FIG. 22) [1]: significantly higher
bulk density ([1]; normal stress 1.5 kPa): about 550 kg/m^3
hygroscopicity classification [2]: non-hydroscopic
thermodynamic stability [3]: thermodynamically stable form
difference between Q3[50] of untreated sample and sample treated 300 s with ultrasound [4]: significantly smaller
D(10) ([4]; 300 s US, listed as Probe2): 14.5 μm
D(50) ([4]; 300 s US, listed as Probe2): 57.3 μm
D(90) ([4]; 300 s US, listed as Probe2): 170 μm
Cumulative volume distribution Q ([4]; particle size D 0.01 μm, 300 s US): 0%
Cumulative volume distribution Q ([4]; particle size D 0.01 μm, without US): 0%
Cumulative volume distribution Q ([4]; particle size D 0.0114 μm, 300 s US): 0%
Cumulative volume distribution Q ([4]; particle size D 0.0114 μm, without US): 0%
Cumulative volume distribution Q ([4]; particle size D 0.0129 μm, 300 s US): 0%
Cumulative volume distribution Q ([4]; particle size D 0.0129 μm, without US): 0%
Cumulative volume distribution Q ([4]; particle size D 0.0147 μm, 300 s US): 0%
Cumulative volume distribution Q ([4]; particle size D 0.0147 μm, without US): 0%
Cumulative volume distribution Q ([4]; particle size D 0.0167 μm, 300 s US): 0%
Cumulative volume distribution Q ([4]; particle size D 0.0167 μm, without US): 0%
Cumulative volume distribution Q ([4]; particle size D 0.0189 μm, 300 s US): 0%
Cumulative volume distribution Q ([4]; particle size D 0.0189 μm, without US): 0%
Cumulative volume distribution Q ([4]; particle size D 0.0215 μm, 300 s US): 0%
Cumulative volume distribution Q ([4]; particle size D 0.0215 μm, without US): 0%
Cumulative volume distribution Q ([4]; particle size D 0.0244 μm, 300 s US): 0%
Cumulative volume distribution Q ([4]; particle size D 0.0244 μm, without US): 0%
Cumulative volume distribution Q ([4]; particle size D 0.0278 μm, 300 s US): 0%
Cumulative volume distribution Q ([4]; particle size D 0.0278 μm, without US): 0%
Cumulative volume distribution Q ([4]; particle size D 0.0315 μm, 300 s US): 0%
Cumulative volume distribution Q ([4]; particle size D 0.0315 μm, without US): 0%
Cumulative volume distribution Q ([4]; particle size D 0.0358 μm, 300 s US): 0%
Cumulative volume distribution Q ([4]; particle size D 0.0358 μm, without US): 0%
Cumulative volume distribution Q ([4]; particle size D 0.0407 μm, 300 s US): 0%
Cumulative volume distribution Q ([4]; particle size D 0.0407 μm, without US): 0%
Cumulative volume distribution Q ([4]; particle size D 756 μm, 300 s US): 100%
Cumulative volume distribution Q ([4]; particle size D 756 μm, without US, listed as Probe 2): 99.65%
Cumulative volume distribution Q ([4]; particle size D 859 μm, 300 s US): 100%
Cumulative volume distribution Q ([4]; particle size D 859 μm, without US, listed as Probe 2): 99.9%
Cumulative volume distribution Q ([4]; particle size D 976 μm, 300 s US): 100%
Cumulative volume distribution Q ([4]; particle size D 976 μm, without US, listed as Probe 2): 100%
Cumulative volume distribution Q ([4]; particle size D 1110 μm, 300 s US): 100%
Cumulative volume distribution Q ([4]; particle size D 1110 μm, without US): 100%
Cumulative volume distribution Q ([4]; particle size D 1260 μm, 300 s US): 100%
Cumulative volume distribution Q ([4]; particle size D 1260 μm, without US): 100%
Cumulative volume distribution Q ([4]; particle size D 1430 μm, 300 s US): 100%
Cumulative volume distribution Q ([4]; particle size D 1430 μm, without US): 100%
Cumulative volume distribution Q ([4]; particle size D 1630 μm, 300 s US): 100%
Cumulative volume distribution Q ([4]; particle size D 1630 μm, without US): 100%
Cumulative volume distribution Q ([4]; particle size D 1850 μm, 300 s US): 100%
Cumulative volume distribution Q ([4]; particle size D 1850 μm, without US): 100%
Cumulative volume distribution Q ([4]; particle size D 2100 μm, 300 s US): 100%
Cumulative volume distribution Q ([4]; particle size D 2100 μm, without US): 100%
Cumulative volume distribution Q ([4]; particle size D 2390 μm, 300 s US): 100%
Cumulative volume distribution Q ([4]; particle size D 2390 μm, without US): 100%
Cumulative volume distribution Q ([4]; particle size D 2710 μm, 300 s US): 100%
Cumulative volume distribution Q ([4]; particle size D 2710 μm, without US): 100%
Cumulative volume distribution Q ([4]; particle size D 3080 μm, 300 s US): 100%
Cumulative volume distribution Q ([4]; particle size D 3080 μm, without US): 100%
Cumulative volume distribution Q ([4]; particle size D 3500 μm, 300 s US): 100%
Cumulative volume distribution Q ([4]; particle size D 3500 μm, without US): 100%
robustness of crystals ([4]; ultrasound treatment, compared to polymorph A): more robust
D(10) [4, 5]: 69.1 μm
D(50) [4, 5]: 179 μm
D(90) [4, 5]: 380 μm
Compound: C[C@@H]1OC(=O)NN=C1c1ccc(-c2ccc(F)cc2)c(C(F)(F)F)c1 [polymorph C, (6S)-5-[4′-Fluoro-2-(trifluoromethyl)biphenyl-4-yl]-6-methyl-3,6-dihydro-2H-1,3,4-oxadiazin-2-one]
